The test system of the assay is Mycobacterium tuberculosis. Briefly: Antimycobacterial activity against Mycobacterium tuberculosis H37Rv assessed as growth inhibition after 6 days by resazurin MIC assay. The class given is functional, organism-based. The conditions noted are these: for IC50 / IC90 / MIC: Mycobacterium tuberculosis, H37Rv, 144 h.

SMILES strings stand for the structures. In brackets after ≈: the same amount, converted by molar mass.

By IC50 is commonly meant the point on the concentration scale where inhibition reaches its midpoint. The term IC90 denotes the point of the concentration-response curve where the effect stands at 90%. What is called MIC is the lowest concentration found to suppress growth. As to `O=C(c1ccncc1)n1nc(-c2ccc(O)cc2)cc1-c1cc2ccccc2oc1=O`, the “growth inhibition (GI)” value worked out at 69.91%, the 50% inhibitory concentration (IC50) was found to be 1.51 µg/mL (≈ 3.69 µM), the IC90 was 2.85 µg/mL (≈ 6.96 µM) and the MIC was 2.5 µg/mL (≈ 6.11 µM).
As for `O=C(c1ccncc1)n1nc(-c2ccccc2)cc1-c1cc2ccccc2oc1=O`, the “growth inhibition (GI)” value is on record as 73.53%, the concentration for half-maximal inhibition (IC50) came to 1.92 µg/mL (≈ 4.88 µM), the concentration for an effect of 90% (IC90) is 2.26 µg/mL (≈ 5.74 µM) and the minimal inhibitory concentration (MIC) came to 2.5 µg/mL (≈ 6.35 µM).
In the case of `O=C(c1ccncc1)n1nc(-c2ccc(F)cc2)cc1-c1cc2ccccc2oc1=O`, the “growth inhibition (GI)” value was determined as 80.09%, the half-inhibitory concentration (IC50) is 0.41 µg/mL (≈ 0.997 µM), the IC90 turned out to be 0.73 µg/mL (≈ 1.77 µM) and the MIC worked out at 0.625 µg/mL (≈ 1.52 µM).
On to `COc1cccc(-c2cc(-c3cc4ccccc4oc3=O)n(C(=O)c3ccncc3)n2)c1`, for which the “growth inhibition (GI)” value came out at 65.14%, the 50% inhibitory concentration (IC50) came out at 1.17 µg/mL (≈ 2.76 µM), the IC90 is 1.29 µg/mL (≈ 3.05 µM) and the MIC turned out to be 1.25 µg/mL (≈ 2.95 µM).
In the same order, the values of `Cc1ccc(-c2cc(-c3cc4ccccc4oc3=O)n(C(=O)c3ccncc3)n2)cc1` are 62.63%, 2.46 µg/mL (≈ 6.04 µM), 2.69 µg/mL (≈ 6.6 µM) and 5 µg/mL (≈ 12.3 µM).
Take `NNC(=O)c1ccncc1` [ISONIAZID]: the MIC was 0.06 µg/mL (≈ 0.438 µM).
Still for that read-out and setting: to `CO[C@H]1/C=C/O[C@@]2(C)Oc3c(C)c(O)c4c(O)c(c(/C=N/N5CCN(C)CC5)c(O)c4c3C2=O)NC(=O)/C(C)=C\C=C\[C@H](C)[C@H](O)[C@@H](C)[C@@H](O)[C@@H](C)[C@H](OC(C)=O)[C@@H]1C` [RIFAMPIN] belongs 0.003 µg/mL (≈ 0.00365 µM).
With `O=C(c1ccncc1)n1nc(-c2ccc(Cl)cc2)cc1-c1cc2ccccc2oc1=O`, the “growth inhibition (GI)” value came to 75.39%, the IC50 was 0.75 µg/mL (≈ 1.75 µM), the IC90 was found to be 1.22 µg/mL (≈ 2.85 µM) and the MIC was found to be 1.25 µg/mL (≈ 2.92 µM).
The like results for `O=C(c1ccncc1)n1nc(-c2cccc([N+](=O)[O-])c2)cc1-c1cc2ccccc2oc1=O` were, in that order, 65.39%, 0.89 µg/mL (≈ 2.03 µM), 1.67 µg/mL (≈ 3.81 µM) and 1.25 µg/mL (≈ 2.85 µM).
Consider `COc1ccc(-c2cc(-c3cc4ccccc4oc3=O)n(C(=O)c3ccncc3)n2)cc1`, for which the “growth inhibition (GI)” value is given as 66.67%, the IC50 was 1.21 µg/mL (≈ 2.86 µM), the IC90 worked out at 1.35 µg/mL (≈ 3.19 µM) and the MIC was 2.5 µg/mL (≈ 5.9 µM).
For the molecule `O=C(c1ccncc1)n1nc(-c2ccc(Cl)cc2Cl)cc1-c1cc2ccccc2oc1=O`, the “growth inhibition (GI)” value came out at 69.09%, the half-inhibitory concentration (IC50) is 0.74 µg/mL (≈ 1.6 µM), the IC90 turned out to be 1.46 µg/mL (≈ 3.16 µM) and the MIC was 1.25 µg/mL (≈ 2.7 µM).
In the same order, the values of `O=C(c1ccncc1)n1nc(-c2ccccc2[N+](=O)[O-])cc1-c1cc2ccccc2oc1=O` are 67.83%, 1.9 µg/mL (≈ 4.33 µM), 2.74 µg/mL (≈ 6.25 µM) and 2.5 µg/mL (≈ 5.7 µM).
In the same order, the values of `CN(C)c1ccc(-c2cc(-c3cc4ccccc4oc3=O)n(C(=O)c3ccncc3)n2)cc1` are 73.82%, 1.21 µg/mL (≈ 2.77 µM), 2.3 µg/mL (≈ 5.27 µM) and 2.5 µg/mL (≈ 5.73 µM).

(Values after ChEMBL document CHEMBL3046118, “Coumarinyl pyrazole derivatives of INH: promising antimycobacterial agents” (Med Chem Res, 2013).)
